This note sets out measurements from PubChem BioAssay (NCI).

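Cultured in 96-well plates, cells were exposed to test compound for 48 hours across five concentrations. The concentration for 50% growth inhibition is given as GI50. TGI marks complete inhibition of growth.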

Test systems include PC-3 prostate; KM12 colon; M14 melanoma; SK-MEL-2 melanoma; HL-60(TB) leukemia; HCT-116 colon; MCF7 breast.
Common to all, as to experiment: growth of human tumour cells (NCI), 48 h

As for `C/C(=N\NC(=S)N1CCCC1)c1ccccn1`, the GI50 in the test with PC-3 prostate was less than 0.01 µM; with KM12 colon, less than 0.01 µM; in the test with M14 melanoma, less than 0.01 µM; in the test on SK-MEL-2 melanoma it was 0.242 µM; in the test on HL-60(TB) leukemia, 0.01 µM; with HCT-116 colon, less than 0.01 µM. Further, the GI50 with MCF7 breast is less than 0.01 µM. Further, the TGI in the test with PC-3 prostate is 16.7 µM; in the test with KM12 colon, 15.2 µM; in the test with M14 melanoma, 4.06 µM; in the test with SK-MEL-2 melanoma, 14.4 µM; in the test with HL-60(TB) leukemia, 0.229 µM; with HCT-116 colon it was 12.1 µM. The molecule also came in with a TGI in the test on MCF7 breast of 7.55 µM.
On to `COc1ccc2c(c1)[n+](=O)c(/C=C/C(=O)c1cc(OC)c(OC)c(OC)c1)c(C)n2[O-]`, for which the GI50 in the test with PC-3 prostate is 15.7 µM; in the test on KM12 colon, 14.4 µM; with M14 melanoma, 3.55 µM; with SK-MEL-2 melanoma, 11.5 µM; in the test on HL-60(TB) leukemia, 4.98 µM; in the test on HCT-116 colon, 3.23 µM. Besides, the GI50 with MCF7 breast was 3.14 µM. The TGI is more than 100 µM in the test with PC-3 prostate; 60.5 µM with KM12 colon; 23.5 µM in the test with M14 melanoma; 28.3 µM with SK-MEL-2 melanoma; 22.4 µM in the test with HL-60(TB) leukemia; 14.2 µM in the test on HCT-116 colon. This molecule also showed a TGI with MCF7 breast of more than 100 µM.
Turning to `COc1ccc(C(=O)c2ccccc2)c(O)c1`, the GI50 with PC-3 prostate was more than 100 µM; in the test with KM12 colon it was 63 µM; in the test on M14 melanoma, 81.7 µM; in the test with SK-MEL-2 melanoma it was more than 100 µM; in the test with HL-60(TB) leukemia, 96.9 µM; with HCT-116 colon it was 50.7 µM. In addition, in the test with MCF7 breast, the GI50 is more than 100 µM. Besides, the TGI with PC-3 prostate, in the test on KM12 colon, in the test with M14 melanoma, in the test with SK-MEL-2 melanoma, with HL-60(TB) leukemia and in the test with HCT-116 colon was more than 100 µM throughout. Also, the TGI in the test with MCF7 breast was more than 100 µM.
Regarding `O=C(CC1(O)CCCCC1)OC1CCCC1`, the TGI in the test on PC-3 prostate, in the test with KM12 colon, with M14 melanoma, with SK-MEL-2 melanoma, in the test on HCT-116 colon and with MCF7 breast was more than 100 µM throughout.
On to `N#C/C(=C/C=C/c1cccc(Cl)c1)S(=O)c1ccccc1` (centres undefined), for which the GI50 with PC-3 prostate was 0.25 µM; in the test with KM12 colon it was 0.321 µM; in the test with M14 melanoma, 1.1 µM; with SK-MEL-2 melanoma, 1.62 µM; with HL-60(TB) leukemia, 0.285 µM; in the test on HCT-116 colon it was 0.241 µM. Also, the TGI was 0.867 µM in the test with PC-3 prostate; 1.38 µM with KM12 colon; 2.89 µM in the test on M14 melanoma; 3.66 µM with SK-MEL-2 melanoma; 2.16 µM with HL-60(TB) leukemia; 0.642 µM in the test on HCT-116 colon.
Take `Cc1cc(C)nc(NC(=O)COc2ccc(Cl)cc2)c1`: the TGI with PC-3 prostate, in the test with KM12 colon, in the test on M14 melanoma, in the test with SK-MEL-2 melanoma, in the test on HCT-116 colon and with MCF7 breast was more than 100 µM each time.
Regarding `CC(=O)/C(=N\N=C(N)N)c1ccccc1`, the TGI with PC-3 prostate, in the test with KM12 colon, with M14 melanoma, in the test with SK-MEL-2 melanoma, with HCT-116 colon and with MCF7 breast was more than 100 µM in each case.
For the molecule `OC(Cc1cccc2ccccc12)CN1CCC(c2ccccc2)CC1` (centres undefined), the TGI is 30.5 µM with PC-3 prostate; 33.7 µM in the test on KM12 colon; 28.7 µM in the test with M14 melanoma; 41.2 µM in the test with HL-60(TB) leukemia; 28.7 µM in the test on HCT-116 colon; 32.7 µM in the test on MCF7 breast.
As for `C[C@]12CCC3c4ccc(O)cc4CCC3C1CC[C@@H]2NC(=O)/C=C/c1ccc(O)c(O)c1` (some centres undefined), the GI50 in the test with PC-3 prostate was 3.94 µM; with KM12 colon, 34.2 µM; in the test on M14 melanoma, 10.6 µM; in the test on SK-MEL-2 melanoma, 20.6 µM; in the test on HCT-116 colon it was 10.6 µM; in the test with MCF7 breast it was 16.1 µM. For the same molecule, the TGI with PC-3 prostate is 40.5 µM; with KM12 colon, more than 100 µM; with M14 melanoma, 22.9 µM; with SK-MEL-2 melanoma, 51.3 µM; in the test with HCT-116 colon, 23 µM; in the test on MCF7 breast it was 49.1 µM.
For the molecule `C=C1C(=O)O[C@@H]2C[C@@H](C)[C@@H]3C=CC(=O)[C@@]3(C)[C@@H](OC(=O)CCCC(=O)O[C@H]3[C@@H]4C(=C)C(=O)O[C@@H]4C[C@@H](C)[C@@H]4C=CC(=O)[C@]43C)[C@H]12`, the TGI was determined as 0.299 µM in the test with PC-3 prostate; 0.662 µM in the test on KM12 colon; 0.0584 µM with M14 melanoma; 0.34 µM in the test on SK-MEL-2 melanoma; 0.03 µM in the test on HCT-116 colon; 0.805 µM in the test with MCF7 breast.
Consider `COc1ccc(CN2c3ccccc3Sc3ccccc32)cc1O`, for which the GI50 is 0.503 µM in the test on PC-3 prostate; 0.383 µM in the test on M14 melanoma; 0.333 µM in the test with SK-MEL-2 melanoma; 0.257 µM in the test with HL-60(TB) leukemia; 0.386 µM in the test with HCT-116 colon; 0.355 µM in the test on MCF7 breast. In addition, the TGI in the test with PC-3 prostate was determined as 16.1 µM; in the test with M14 melanoma it was 18.6 µM; in the test on SK-MEL-2 melanoma, 19.9 µM; with HL-60(TB) leukemia, 0.661 µM; in the test with HCT-116 colon, 13.1 µM; with MCF7 breast, 13.4 µM.
Turning to `CCNc1ccc2c(c1)C(=O)N(OS(C)(=O)=O)C2=O`, the TGI in the test on PC-3 prostate, in the test on KM12 colon, in the test on M14 melanoma, with SK-MEL-2 melanoma, with HCT-116 colon and in the test on MCF7 breast was more than 100 µM each time.
`O=C1c2ccccc2-c2c1c1ccccc1c(=O)n2CCNCCNCCNCCNCCn1c2c(c3ccccc3c1=O)C(=O)c1ccccc1-2`: the GI50 was 0.655 µM in the test on KM12 colon; 0.692 µM with SK-MEL-2 melanoma; 0.216 µM in the test with HL-60(TB) leukemia; 0.133 µM in the test with HCT-116 colon; 0.0501 µM in the test with MCF7 breast. Besides, the TGI in the test on KM12 colon is 5.32 µM; with SK-MEL-2 melanoma, 2.4 µM; in the test on HL-60(TB) leukemia, 2.08 µM; with MCF7 breast, 1.71 µM.
Turning to `O=C(O)CCN1C(=S)CSC1=S`, the TGI in the test on PC-3 prostate, with KM12 colon, in the test on M14 melanoma, with SK-MEL-2 melanoma, in the test on HCT-116 colon and in the test with MCF7 breast was more than 100 µM throughout.
Consider `O=C(O)C(Cc1ccccc1)N1C(=O)/C(=C/C(Cl)=C/c2ccc([N+](=O)[O-])cc2)SC1=S` (centres undefined), for which the GI50 in the test on PC-3 prostate is 2.53 µM; with KM12 colon it was 2.06 µM; in the test on SK-MEL-2 melanoma, 1.87 µM; in the test with HCT-116 colon, 2.01 µM; in the test on MCF7 breast, 2.38 µM. The TGI in the test on PC-3 prostate came out at 7.98 µM; with KM12 colon, 4.35 µM; in the test on SK-MEL-2 melanoma, 4.5 µM; in the test with HCT-116 colon it was 5.47 µM; with MCF7 breast it was 10.7 µM.
